Laboratory results taken from patent US8642585B2, “Indanyloxydihydrobenzofuranylacetic acids” (Boehringer Ingelheim International GmbH, priority 2012, dated 2014).

Target: human GPR40 receptor (Homo sapiens, UniProt O14842)
Experiment: Assay II: IP1 accumulation (IPOne HTRF) in 1321N1 cells stably expressing human GPR40
Type: cell-based
Settings: 1321N1 cells expressing human GPR40, stimulation 1 h at 37° C., 5% CO2, LiCl 50 mM
Method in brief: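 1321N1 cells stably expressing human GPR40, seeded 24 h earlier, were stimulated with compound for 1 h at 37 °C in LiCl (50 mM) buffer, pH 7.4. IP1 measured by HTRF (665/615 ratio) after lysis and 1 h room temperature; pEC50 via IP1 reference curve and variable-slope sigmoidal fit.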

Chain of human GPR40 receptor (O14842 whole entry): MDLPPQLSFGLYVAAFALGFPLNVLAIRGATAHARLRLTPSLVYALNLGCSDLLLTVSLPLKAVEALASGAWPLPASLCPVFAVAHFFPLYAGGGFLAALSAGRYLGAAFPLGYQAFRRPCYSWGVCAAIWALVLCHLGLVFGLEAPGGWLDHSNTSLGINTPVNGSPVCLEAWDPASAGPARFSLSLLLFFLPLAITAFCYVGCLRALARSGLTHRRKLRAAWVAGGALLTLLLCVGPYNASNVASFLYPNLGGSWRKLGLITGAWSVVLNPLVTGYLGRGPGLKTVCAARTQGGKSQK

Row | Compound | EC50 [nM]
1 | Cc1ccc(-c2cc(C)c(-c3ccc(F)c4c3CC[C@H]4Oc3ccc4c(c3)OC[C@H]4CC(=O)O)c(C)c2)nn1 [Example 120, {(S)-6-[(R)-4-(2,6-Dimethyl-4-(6-methyl-pyridazin-3-yl)-phenyl)-7-fluoro-indan-1-yloxy]-2,3-dihydro-benzofuran-3-yl}-acetic acid] | 2
2 | Cc1cc(-c2cc(C)c(-c3ccc(F)c4c3CC[C@H]4Oc3ccc4c(c3)OC[C@H]4CC(=O)O)c(C)c2)cc(C)n1 [Example 121, {(S)-6-[(R)-4-(2,6-Dimethyl-4-(2,6-dimethyl-pyridin-4-yl)-phenyl)-7-fluoro-indan-1-yloxy]-2,3-dihydro-benzofuran-3-yl}-acetic acid] | 2
3 | Cc1cc(-c2cnccn2)cc(C)c1-c1ccc(F)c2c1CC[C@H]2Oc1ccc2c(c1)OC[C@H]2CC(=O)O [Example 122, {(S)-6-[(R)-4-(2,6-Dimethyl-4-pyrazin-2-yl-phenyl)-7-fluoro-indan-1-yloxy]-2,3-dihydro-benzofuran-3-yl}-acetic acid] | 2
4 | Cc1cc(-c2cnc(C3CC3)cn2)cc(C)c1-c1ccc(F)c2c1CC[C@H]2Oc1ccc2c(c1)OC[C@H]2CC(=O)O [Example 123, {(S)-6-[(R)-4-(2,6-Dimethyl-4-(5-cyclopropyl-pyrazin-2-yl)-phenyl)-7-fluoro-indan-1-yloxy]-2,3-dihydro-benzofuran-3-yl}-acetic acid] | 7
5 | Cc1cccc(C)c1-c1ncccc1-c1ccc(F)c2c1CC[C@H]2Oc1ccc2c(c1)OC[C@H]2CC(=O)O [Example 124, {(S)-6-[(R)-4-(2-(2,6-Dimethyl-phenyl)-pyridin-3-yl)-7-fluoro-indan-1-yloxy]-2,3-dihydro-benzofuran-3-yl}-acetic acid] | 339
6 | CCc1ccc(-c2cc(C)c(-c3ccc(F)c4c3CC[C@H]4Oc3ccc4c(c3)OC[C@H]4CC(=O)O)c(C)c2)nn1 [Example 125, {(S)-6-[(R)-4-(2,6-Dimethyl-4-(6-ethyl-pyridazin-3-yl)-phenyl)-7-fluoro-indan-1-yloxy]-2,3-dihydro-benzofuran-3-yl}-acetic acid] | 4
7 | COc1ccc(-c2cc(C)c(-c3ccc(F)c4c3CC[C@H]4Oc3ccc4c(c3)OC[C@H]4CC(=O)O)c(C)c2)cn1 [Example 126, {(S)-6-[(R)-4-(2,6-Dimethyl-4-(6-methoxy-pyridin-3-yl)-phenyl)-7-fluoro-indan-1-yloxy]-2,3-dihydro-benzofuran-3-yl}-acetic acid] | 6
8 | O=C(O)C[C@@H]1COc2cc(O[C@@H]3CCc4c(-c5cccnc5N5CCCOCC5)ccc(F)c43)ccc21 [Example 127, {(S)-6-[(R)-7-Fluoro-4-(2-[1,4]oxazepan-4-yl-pyridin-3-yl)-indan-1-yloxy]-2,3-dihydro-benzofuran-3-yl}-acetic acid] | 48
9 | O=C(O)C[C@@H]1COc2cc(O[C@@H]3CCc4c(-c5cccnc5N5CCOCC5)ccc(F)c43)ccc21 [Example 128, {(S)-6-[(R)-7-Fluoro-4-(2-morpholin-4-yl-pyridin-3-yl)-indan-1-yloxy]-2,3-dihydro-benzofuran-3-yl}-acetic acid] | 288
10 | COc1cnnc(-c2cc(C)c(-c3ccc(F)c4c3CC[C@H]4Oc3ccc4c(c3)OC[C@H]4CC(=O)O)c(C)c2)c1 [Example 129, {(S)-6-[(R)-4-(2,6-Dimethyl-4-(5-methoxy-pyridazin-3-yl)-phenyl)-7-fluoro-indan-1-yloxy]-2,3-dihydro-benzofuran-3-yl}-acetic acid] | 4
11 | Cc1cc(-c2cc(C)c(-c3ccc(F)c4c3CC[C@H]4Oc3ccc4c(c3)OC[C@H]4CC(=O)O)c(C)c2)cnn1 [Example 130, {(S)-6-[(R)-4-(2,6-Dimethyl-4-(6-methyl-pyridazin-4-yl)-phenyl)-7-fluoro-indan-1-yloxy]-2,3-dihydro-benzofuran-3-yl}-acetic acid] | 5
12 | Cc1cc(-c2cn(C)c(C)n2)cc(C)c1-c1ccc(F)c2c1CC[C@H]2Oc1ccc2c(c1)OC[C@H]2CC(=O)O [Example 131, {(S)-6-[(R)-4-(2,6-Dimethyl-4-(1,2-dimethyl-imidazol-4-yl)-phenyl)-7-fluoro-indan-1-yloxy]-2,3-dihydro-benzofuran-3-yl}-acetic acid] | 2
13 | Cc1cc(-c2nccs2)cc(C)c1-c1ccc(F)c2c1CC[C@H]2Oc1ccc2c(c1)OC[C@H]2CC(=O)O [Example 132, {(S)-6-[(R)-4-(2,6-Dimethyl-4-thiazol-2-yl-phenyl)-7-fluoro-indan-1-yloxy]-2,3-dihydro-benzofuran-3-yl}-acetic acid] | 2
14 | Cc1cc(-c2cn(C)cn2)cc(C)c1-c1ccc(F)c2c1CC[C@H]2Oc1ccc2c(c1)OC[C@H]2CC(=O)O [Example 133, {(S)-6-[(R)-4-(2,6-Dimethyl-4-(1-methyl-imidazol-4-yl)-phenyl)-7-fluoro-indan-1-yloxy]-2,3-dihydro-benzofuran-3-yl}-acetic acid] | 2
15 | Cc1nc(-c2cc(C)c(-c3ccc(F)c4c3CC[C@H]4Oc3ccc4c(c3)OC[C@H]4CC(=O)O)c(C)c2)no1 [Example 134, {(S)-6-[(R)-4-(2,6-Dimethyl-4-(5-methyl-[1,2,4]oxadiazol-3-yl)-phenyl)-7-fluoro-indan-1-yloxy]-2,3-dihydro-benzofuran-3-yl}-acetic acid] | 3
16 | COc1ccc(-c2cc(C)c(-c3ccc(F)c4c3CC[C@H]4Oc3ccc4c(c3)OC[C@H]4CC(=O)O)c(C)c2)nc1 [Example 135, {(S)-6-[(R)-4-(2,6-Dimethyl-4-(5-methoxy-pyridin-2-yl)-phenyl)-7-fluoro-indan-1-yloxy]-2,3-dihydro-benzofuran-3-yl}-acetic acid] | 7
17 | Cc1cc(-c2noc(C(C)(C)O)n2)cc(C)c1-c1ccc(F)c2c1CC[C@H]2Oc1ccc2c(c1)OC[C@H]2CC(=O)O [Example 136, {(S)-6-[(R)-4-(2,6-Dimethyl-4-(5-[2-hydroxy-prop-2-yl]-[1,2,4]oxadiazol-3-yl)-phenyl)-7-fluoro-indan-1-yloxy]-2,3-dihydro-benzofuran-3-yl}-acetic acid] | 3
18 | Cc1cc(-c2ccccn2)cc(C)c1-c1ccc(F)c2c1CC[C@H]2Oc1ccc2c(c1)OC[C@H]2CC(=O)O [Example 137, {(S)-6-[(R)-4-(2,6-Dimethyl-4-pyridin-2-yl-phenyl)-7-fluoro-indan-1-yloxy]-2,3-dihydro-benzofuran-3-yl}-acetic acid] | 2
19 | Cc1cccnc1-c1cc(C)c(-c2ccc(F)c3c2CC[C@H]3Oc2ccc3c(c2)OC[C@H]3CC(=O)O)c(C)c1 [Example 138, {(S)-6-[(R)-4-(2,6-Dimethyl-4-(3-methyl-pyridin-2-yl)-phenyl)-7-fluoro-indan-1-yloxy]-2,3-dihydro-benzofuran-3-yl}-acetic acid] | 9
20 | Cc1cccc(-c2cc(C)c(-c3ccc(F)c4c3CC[C@H]4Oc3ccc4c(c3)OC[C@H]4CC(=O)O)c(C)c2)n1 [Example 139, {(S)-6-[(R)-4-(2,6-Dimethyl-4-(6-methyl-pyridin-2-yl)-phenyl)-7-fluoro-indan-1-yloxy]-2,3-dihydro-benzofuran-3-yl}-acetic acid] | 2
21 | Cc1ccnc(-c2cc(C)c(-c3ccc(F)c4c3CC[C@H]4Oc3ccc4c(c3)OC[C@H]4CC(=O)O)c(C)c2)c1 [Example 140, {(S)-6-[(R)-4-(2,6-Dimethyl-4-(4-methyl-pyridin-2-yl)-phenyl)-7-fluoro-indan-1-yloxy]-2,3-dihydro-benzofuran-3-yl}-acetic acid] | 2
22 | Cc1cc(C)nc(-c2cc(C)c(-c3ccc(F)c4c3CC[C@H]4Oc3ccc4c(c3)OC[C@H]4CC(=O)O)c(C)c2)c1 [Example 141, {(S)-6-[(R)-4-(2,6-Dimethyl-4-(4,6-dimethyl-pyridin-2-yl)-phenyl)-7-fluoro-indan-1-yloxy]-2,3-dihydro-benzofuran-3-yl}-acetic acid] | 3
23 | Cc1cn(C)c(-c2cc(C)c(-c3ccc(F)c4c3CC[C@H]4Oc3ccc4c(c3)OC[C@H]4CC(=O)O)c(C)c2)n1 [Example 142, {(S)-6-[(R)-4-(2,6-Dimethyl-4-(1,4-dimethyl-imidazol-2-yl)-phenyl)-7-fluoro-indan-1-yloxy]-2,3-dihydro-benzofuran-3-yl}-acetic acid] | 16
24 | Cc1ccc(-c2cc(C)c(-c3ccc(F)c4c3CC[C@H]4Oc3ccc4c(c3)OC[C@H]4CC(=O)O)c(C)c2)nc1 [Example 143, {(S)-6-[(R)-4-(2,6-Dimethyl-4-(5-methyl-pyridin-2-yl)-phenyl)-7-fluoro-indan-1-yloxy]-2,3-dihydro-benzofuran-3-yl}-acetic acid] | 3
25 | Cc1cc(-c2nccn2C)cc(C)c1-c1ccc(F)c2c1CC[C@H]2Oc1ccc2c(c1)OC[C@H]2CC(=O)O [Example 144, {(S)-6-[(R)-4-(2,6-Dimethyl-4-(1-methyl-imidazol-2-yl)-phenyl)-7-fluoro-indan-1-yloxy]-2,3-dihydro-benzofuran-3-yl}-acetic acid] | 17
26 | Cc1cc(OCc2ccn(C)n2)cc(C)c1-c1ccc(F)c2c1CC[C@H]2Oc1ccc2c(c1)OC[C@H]2CC(=O)O [Example 145, 2-((S)-6-((R)-4-(2,6-dimethyl-4-((1-methyl-1H-pyrazol-3-yl)methoxy)phenyl)-7-fluoro-2,3-dihydro-1H-inden-1-yloxy)-2,3-dihydrobenzofuran-3-yl)acetic acid] | 15
27 | Cc1cc(OCc2ccn(C)c(=O)c2)cc(C)c1-c1ccc(F)c2c1CC[C@H]2Oc1ccc2c(c1)OC[C@H]2CC(=O)O [Example 146, 2-((S)-6-((R)-4-(2,6-dimethyl-4-((1-methyl-2-oxo-1,2-dihydropyridin-4-yl)methoxy)phenyl)-7-fluoro-2,3-dihydro-1H-inden-1-yloxy)-2,3-dihydrobenzofuran-3-yl)acetic acid] | 7
28 | Cc1cc(OCc2ncco2)cc(C)c1-c1ccc(F)c2c1CC[C@H]2Oc1ccc2c(c1)OC[C@H]2CC(=O)O [Example 148, 2-((S)-6-((R)-4-(2,6-dimethyl-4-(oxazol-2-ylmethoxy)phenyl)-7-fluoro-2,3-dihydro-1H-inden-1-yloxy)-2,3-dihydrobenzofuran-3-yl)acetic acid] | 13
